{"source": "patent US20230190774A1", "about": "“METHOD OF USING SUBSTRATES OF AKR1Bl/AKR1B10 AS ANTI-CANCER DRUGS” (Beijing Normal University Hong Kong Baptist University …, priority 2015, published 2023)", "key": {"AKR1B10 [1]": {"molecular_target": "T1, AKR1B10 (Homo sapiens, UniProt O60218)", "T1 sequence (O60218 whole entry)": "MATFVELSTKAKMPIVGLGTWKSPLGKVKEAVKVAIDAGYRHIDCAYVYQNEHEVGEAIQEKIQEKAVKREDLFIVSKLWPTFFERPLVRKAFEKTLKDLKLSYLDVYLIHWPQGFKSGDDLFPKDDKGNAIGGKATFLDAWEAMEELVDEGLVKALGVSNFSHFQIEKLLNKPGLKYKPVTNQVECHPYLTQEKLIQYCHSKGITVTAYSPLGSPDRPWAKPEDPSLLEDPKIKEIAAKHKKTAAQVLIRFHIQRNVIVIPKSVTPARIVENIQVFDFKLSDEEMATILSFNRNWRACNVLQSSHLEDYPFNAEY", "assay": "Enzyme activity assay (NADPH oxidation), purified AKR1B10", "assay_type": "biochemical", "conditions": "20 mM substrate, pH 7.0, 30° C.", "experimental": "(§1) Assay of AKR1B1 and AKR1B10 enzymes activities were conducted in 1 ml of the reaction mixture containing 135 mM sodium phosphate buffer (pH 6.2 for AKR1B1 or pH 7.0 for AKR1B10), 0.2 mM NADPH, 0.3 M ammonium sulfate, 2 µg purified protein and 20 mM of their substrate as indicated. The reaction mix was incubated at 30° C. for 30 minutes (min). Protein-free blank controls were included. The decrease of NADPH was monitored by spectrophotometer at 340 nm. Enzyme activity was calculated as the amount of NADPH oxidized/min/mg of protein (Shen Y et al., Chem Biol Interact. 2011, 191(1-3): 192-198)."}, "AKR1B1 [2]": {"molecular_target": "T2, AKR1B1 (Homo sapiens, UniProt P15121)", "conditions": "ND = no detectable activity or less than 32 nmol/min/mg; cited from earlier work"}, "[3]": {"conditions": "for Death Rate: both, ICR, 14 days", "experimental": "ICR mice (18-22 g) were acquired from the Laboratory Animal Services Centre, The Chinese University of Hong Kong. These animals were housed in an animal room with 12 h of day and dark cycles, and the temperature maintained at around 25° C. There were 4 male and 4 female in each treatment and control group. They were treated with either diacetyl or glyceraldehyde. Diacetyl and glyceraldehyde were dissolved with saline and administered to the mice by intravenous injection with the amount indicated. […] Mortality was recorded daily for the calculation of […] (LD50). All surviving animals were euthanized with diethyl-ether at the end of the experiment."}, "SKOV3 cells": {"system": "SKOV3 cells", "assay": "Cytotoxicity assay (cell survival rate, MTT)", "assay_type": "cell-based", "experimental": "(§2) HepG2 cells, SKOV3 cells, HCT116 cells and CaCo2 cells were cultured in DMEM medium, SW480 cells in 1640 medium, and HT29 cells in McCoy’s 5A medium. All cell culture media were supplemented with 10% FBS, 1% PSN, and cells were cultured in a humidified incubator containing 5% CO2 at 37° C. In cytotoxicity assays, cells were seeded at 1 × 10^5 cells/well in 96 well plates with full medium. In GSH assay and Western blot analysis, cells were seeded at 3× 10^6 cells/well in 6 well plates.\n(§3) The AKR1Bs substrates’ cytotoxicity was assessed by cell survival rate using MTT assay. After the cells were treated with the substrates for the length of time indicated, MTT was added to a final concentration of 0.5 mg/ml in each well of a 96-well plate, and the plates were incubated at 37° C. for 4 hour. Then DMSO was added to dissolve the formazan product, the amount of which is proportional to the number of live cells. The absorbance of dissolved dye was measured at 540 nm using an automatic microplate reader."}, "HepG2 cells": {"system": "HepG2 cells", "assay": "Cytotoxicity assay (cell survival rate, MTT)", "assay_type": "cell-based", "experimental": "as §2, §3"}, "CaCo2 cells": {"system": "CaCo2 cells", "assay": "Cytotoxicity assay (cell survival rate, MTT)", "assay_type": "cell-based", "experimental": "as §2, §3"}, "HCT116 cells": {"system": "HCT116 cells", "assay": "Cytotoxicity assay (cell survival rate, MTT)", "assay_type": "cell-based", "experimental": "as §2, §3"}, "AKR1B1 [4]": {"molecular_target": "T2, AKR1B1", "assay": "Enzyme activity assay (NADPH oxidation), purified AKR1B1", "assay_type": "biochemical", "conditions": "20 mM substrate, pH 6.2, 30° C.", "experimental": "as §1"}, "HepG2 tumor xenograft": {"system": "HepG2 tumor xenograft", "conditions": "500 mg/kg, tail vein, daily for 21 days", "experimental": "Six-week-old male BALB/C nude mice were purchased from the Laboratory Animal Unit of the University of Hong Kong. Mice were allowed to acclimate to laboratory conditions for 1 week before cancer cells injection. […] Treatment was initiated when the tumor grew to about 200±100 mm3. […] Mice were randomized and allocated to different groups. They received daily tail vein injection for 3 weeks of one of the following: glyceraldehyde (500 mg/kg body weight); diacetyl (80 mg/kg body weight); or normal saline. Mice were weighted and the sizes of the tumors were measured with calipers every 3 days. Tumor volumes were calculated with the formula: length×width2/2. Animals were humanely killed at the end of the experiment and their tumors were weighed."}, "AKR1B10 [5]": {"molecular_target": "T1, AKR1B10", "conditions": "ND = no detectable activity or less than 32 nmol/min/mg; cited from earlier work"}, "SW480 cells": {"system": "SW480 cells", "assay": "Cytotoxicity assay (cell survival rate, MTT)", "assay_type": "cell-based", "experimental": "as §3, with “HepG2 cells, SKOV3 cells, HCT116 cells and CaCo2 cells were cultured in DMEM medium, SW480 cells in 1640 medium, and HT29 cells in McCoy’s 5A medium. […] In cytotoxicity assays, cells were seeded at 1 × 10^5 cells/well in 96 well plates with full medium. In GSH assay and Western blot analysis, cells were seeded at 3× 10^6 cells/well in 6 well plates. The AKR1Bs” for “The AKR1Bs”"}, "HT29 cells": {"system": "HT29 cells", "assay": "Cytotoxicity assay (cell survival rate, MTT)", "assay_type": "cell-based", "experimental": "as §3, with “HepG2 cells, SKOV3 cells, HCT116 cells and CaCo2 cells were cultured in DMEM medium, SW480 cells in 1640 medium, and HT29 cells in McCoy’s 5A medium. […] In cytotoxicity assays, cells were seeded at 1 × 10^5 cells/well in 96 well plates with full medium. In GSH assay and Western blot analysis, cells were seeded at 3× 10^6 cells/well in 6 well plates. The AKR1Bs” for “The AKR1Bs”"}, "AKR1B10 [6]": {"system": "AKR1B10", "assay": "Western blot of AKR1B10 protein level in treated cells", "assay_type": "cell-based, human", "experimental": "as §2\n(§4) Cells were lysed on ice with the protein extraction reagent. Total protein (30 µg) per sample were loaded onto 10% SDS-polyacrylamide gels and separated at 75V, and then electrotransferred to polyvinylidene difluoride (PVDF) membranes overnight at 15 V. Membranes were then soaked in 5% nonfat milk in TBS at room temperature for 1 hour and then incubated with rabbit anti-AKR1B1 antibodies (1:3000) or rabbit anti-AKR1B10 antibodies (1:3000) at room temperature for 2 hours. After being washed, the membranes were incubated in HRP-conjugated goat anti-rabbit or goat anti-mouse IgG secondary antibodies (1:5000) for 1 hour at room temperature, followed by washing and incubation with ECL reagents for 1 min. β-actin monoclonal mouse antibodies (1:5000) was used as reference to assess the relative amounts of proteins loaded per lane."}, "AKR1B1 [7]": {"system": "AKR1B1", "assay": "Western blot of AKR1B1 protein level in treated cells", "assay_type": "cell-based, human", "experimental": "as §2, §4"}, "[8]": {"conditions": "substrate alone, 2DG for 72 hours"}, "[9]": {"conditions": "BSO (0.3 mM) with 1.25/0.625 mM substrate, NAC with 2.5/1.25 mM substrate"}, "[10]": {"conditions": "BSO with 1.25/0.625 mM substrate, NAC with 2.5/1.25 mM substrate"}, "[11]": {"conditions": "pretreated 24 hours before addition of 2DG"}}, "note": "Entries after “also recorded” stand apart in the source; their conditions may differ. Where two headings read alike, the source gives them in different places.", "data": [{"smiles": "O=CC(O)CO", "note": "(racemic) [Glyceraldehyde, glyceraldehyde]", "values": [{"measurement": "Efficiency as substrate of AKR1B10 (rate of NADPH depletion)", "setting": "AKR1B10 [1]", "value": "excellent substrate"}, {"measurement": "AKR1B1 activity, amount of NADPH (nmol) oxidized per min per mg of protein", "setting": "AKR1B1 [2]", "value": 1681, "unit": "nmol/min/mg"}, {"measurement": "LD50", "setting": "[3]; ICR mice, intravenous injection daily for 14 days", "value": "greater than 2000 mg/kg BW"}, {"measurement": "Death Rate", "setting": "[3]; mouse, in vivo, iv, 1000 mg/kg", "value": 0, "unit": "%"}, {"measurement": "Death Rate", "setting": "[3]; mouse, in vivo, iv, 2000 mg/kg", "value": 0, "unit": "%"}, {"measurement": "LD50", "setting": "[3]; mouse, in vivo, iv", "value": ">2000", "unit": "mg/kg BW"}, {"measurement": "Cytotoxicity of AKR1Bs substrate (cell survival rate)", "setting": "SKOV3 cells; [8]", "value": "dose-dependently and preferentially kill; also recorded: dose dependently and preferentially kill; also recorded: most efficient"}, {"measurement": "Cytotoxicity of AKR1Bs substrate (cell survival rate)", "setting": "HepG2 cells; [8]", "value": "dose-dependently and preferentially kill; also recorded: dose dependently and preferentially kill; also recorded: most efficient"}, {"measurement": "Cytotoxicity of AKR1Bs substrate (cell survival rate)", "setting": "CaCo2 cells; [8]", "value": "dose dependently and preferentially kill"}, {"measurement": "Cytotoxicity of AKR1Bs substrate (cell survival rate)", "setting": "HCT116 cells; [8]", "value": "dose dependently and preferentially kill"}, {"measurement": "Efficiency as substrate of AKR1B1 (rate of NADPH depletion)", "setting": "AKR1B1 [4]", "value": "excellent substrate"}, {"measurement": "Efficiency as substrate of AKR1B1 (rate of NADPH depletion)", "setting": "AKR1B1 [4]; listed as glyceraldehyde", "value": "best substrate"}, {"measurement": "Tumor volume", "setting": "HepG2 tumor xenograft", "value": "significantly reduced"}, {"measurement": "Tumor weight", "setting": "HepG2 tumor xenograft", "value": "significantly reduced"}, {"measurement": "AKR1B10 activity, amount of NADPH (nmol) oxidized per min per mg of protein", "setting": "AKR1B10 [5]", "value": 1853, "unit": "nmol/min/mg"}, {"measurement": "Cytotoxicity of AKR1Bs substrate (cell survival rate)", "setting": "SW480 cells; [8]", "value": "more resistant"}, {"measurement": "Cytotoxicity of AKR1Bs substrate (cell survival rate)", "setting": "HT29 cells; [8]", "value": "more resistant"}]}, {"smiles": "CCCCS(=N)(=O)CCC(N)C(=O)O", "note": "[BSO, L-buthionine-[S,R]-sulfoximine]", "values": [{"measurement": "Effect on toxicity of glyceraldehyde and diacetyl", "setting": "SKOV3 cells; [9]", "value": "more HepG2 and SKOV3 cells were killed; also recorded: enhanced the toxicity"}, {"measurement": "Effect on toxicity of glyceraldehyde and diacetyl", "setting": "HepG2 cells; [9]", "value": "more HepG2 and SKOV3 cells were killed; also recorded: enhanced the toxicity"}, {"measurement": "Effect on toxicity of glyceraldehyde and diacetyl", "setting": "CaCo2 cells; [10]", "value": "enhanced the toxicity"}, {"measurement": "Effect on toxicity of glyceraldehyde and diacetyl", "setting": "HCT116 cells; [10]", "value": "enhanced the toxicity"}]}, {"smiles": "CC(C)C[C@H](NC(=O)[C@H](Cc1ccccc1)NC(=O)c1cnccn1)B(O)O", "note": "[Bortezomib]", "values": [{"measurement": "AKR1B10 protein level (western blot)", "setting": "AKR1B10 [6]; HT29 cells", "value": "increased"}, {"measurement": "AKR1B10 protein level (western blot)", "setting": "AKR1B10 [6]; SW480 cells", "value": "induced only AKR1B1"}, {"measurement": "AKR1B1 protein level (western blot)", "setting": "AKR1B1 [7]; HT29 cells", "value": "increased"}, {"measurement": "AKR1B1 protein level (western blot)", "setting": "AKR1B1 [7]; SW480 cells", "value": "induced"}, {"measurement": "Sensitivity to 2DG after pretreatment", "setting": "SW480 cells; [11]", "value": "significantly more cells were killed by 2DG"}, {"measurement": "Sensitivity to 2DG after pretreatment", "setting": "HT29 cells; [11]", "value": "significantly more cells were killed by 2DG"}]}, {"smiles": "O=C[C@H](O)[C@@H](O)[C@@H](O)[C@H](O)CO", "note": "[D-Galactose]", "values": [{"measurement": "AKR1B1 activity, amount of NADPH (nmol) oxidized per min per mg of protein", "setting": "AKR1B1 [2]", "value": 193, "unit": "nmol/min/mg"}, {"measurement": "AKR1B10 activity, amount of NADPH (nmol) oxidized per min per mg of protein", "setting": "AKR1B10 [5]", "value": 65, "unit": "nmol/min/mg"}]}, {"smiles": "O=C[C@H](O)[C@@H](O)[C@H](O)[C@H](O)CO", "note": "[D-Glucose]", "values": [{"measurement": "AKR1B1 activity, amount of NADPH (nmol) oxidized per min per mg of protein", "setting": "AKR1B1 [2]", "value": 129, "unit": "nmol/min/mg"}, {"measurement": "AKR1B10 activity, amount of NADPH (nmol) oxidized per min per mg of protein", "setting": "AKR1B10 [5]", "value": 65, "unit": "nmol/min/mg"}]}]}
